Our source for the IC50 and viability, T/C values is PubChem BioAssay AID1918931 (Molecular Pharmacology Branch, DTP, NCI, 2023).

“And” between values parts separate entries of the source, which are not always exact repeats. Equal entries are not always repeated. Bounds are passed on as bounds.

This assay concerns 138582-337-R-J1-PDC complex spheroid viability. Briefly: Anticancer human tumor 138582-337-R-J1-PDC patient-derived Merkel cell tumor cell line growth inhibition. The settings on record: for viability, T/C: stronger effect = lower value. In short, it runs like this:
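Multicellular complex spheroids of tumor cells with human endothelial cells (HUVEC) and mesenchymal stem cells; the LSD1 inhibitor iadademstat was combined with standard-of-care or investigational agents. Top concentration at or near clinical Cmax, half-log dilutions; final DMSO ≤0.25%.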

[1] abbreviates: curve of first compound, second compound 0.1 µM.
[2] abbreviates: curve of first compound, second compound 0.316 µM.
Setting [3] is: curve of first compound, second compound 1 µM.
The mark [4] stands for this setting: curve of first compound, second compound 3.16 µM.
Where [5] appears, read: curve of first compound, second compound 10 µM.
Setting [6] is: second compound 0.1 µM, first compound 0.0316 µM.
Setting [7] is: second compound 0.1 µM, first compound 0.1 µM.
The mark [8] stands for this setting: second compound 0.1 µM, first compound 0.316 µM.
Where [9] appears, read: second compound 0.1 µM, first compound 1 µM.
The mark [10] stands for this setting: second compound 0.316 µM, first compound 0.0316 µM.
[11] abbreviates: second compound 0.316 µM, first compound 0.1 µM.
Setting [12] is: second compound 0.316 µM, first compound 0.316 µM.
Where [13] appears, read: second compound 0.316 µM, first compound 1 µM.
Where [14] appears, read: second compound 1 µM, first compound 0.0316 µM.
Setting [15] is: second compound 1 µM, first compound 0.1 µM.
[16] abbreviates: second compound 1 µM, first compound 0.316 µM.
[17] abbreviates: second compound 1 µM, first compound 1 µM.
Setting [18] is: second compound 3.16 µM, first compound 0.0316 µM.
Setting [19] is: second compound 3.16 µM, first compound 0.1 µM.
The mark [20] stands for this setting: second compound 3.16 µM, first compound 0.316 µM.
[21] abbreviates: second compound 3.16 µM, first compound 1 µM.
Where [22] appears, read: second compound 10 µM, first compound 0.0316 µM.
The mark [23] stands for this setting: second compound 10 µM, first compound 0.1 µM.
Setting [24] is: second compound 10 µM, first compound 0.316 µM.
[25] abbreviates: second compound 10 µM, first compound 1 µM.
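Also: spheroids exposed to agents for 7 days.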
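For viability, T/C in this document: 100% = DMSO vehicle control viability.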

In general, IC50 refers to the concentration at which inhibition is half-maximal. What is called viability, T/C is the ratio of treated to control. As for `Nc1ncn(C2CC(O)C(CO)O2)c(=O)n1` (centres undefined) + NC1CCC(NC2CC2c2ccccc2)CC1, the IC50 was greater than 1 µM under setting [1]; greater than 1 µM under setting [2]; greater than 1 µM under setting [3]; greater than 1 µM under setting [4]; greater than 1 µM under setting [5]. For the same compound, the viability, T/C is, setting by setting: (second compound 0.1 µM, first compound 0.00316 µM) 98.7%; (second compound 0.1 µM, first compound 0.01 µM) 97.8%; under setting [6], 103%; under setting [7], 108%; under setting [8], 95.4%; under setting [9], 102%. The viability, T/C is, setting by setting: (second compound 0.316 µM, first compound 0.00316 µM) 82.7%; (second compound 0.316 µM, first compound 0.01 µM) 99.4%; under setting [10], 96.6%; under setting [11], 107%; under setting [12], 89.7%; under setting [13], 96.5%. Also, the viability, T/C runs as follows: (second compound 1 µM, first compound 0.00316 µM) 96.9%; (second compound 1 µM, first compound 0.01 µM) 110%; under setting [14], 97.5%; under setting [15], 81.1%; under setting [16], 83.2%; under setting [17], 97.3%. In addition, the viability, T/C is 100% (second compound 3.16 µM, first compound 0.00316 µM); 97.5% (second compound 3.16 µM, first compound 0.01 µM); 93.1% under setting [18]; 91.8% under setting [19]; 103% under setting [20]; 95.3% under setting [21]. For the same compound, the viability, T/C is 87.2% (second compound 10 µM, first compound 0.00316 µM); 86% (second compound 10 µM, first compound 0.01 µM); 91.8% under setting [22]; 82.4% under setting [23]; 84.7% under setting [24]; 76.1% under setting [25].
For the compound `O=C(c1cc(Cc2n[nH]c(=O)c3ccccc23)ccc1F)N1CCN(C(=O)C2CC2)CC1`, the viability, T/C by setting is: (compound 0.0316 µM) 106% and 90%; (compound 0.1 µM) 71.7% and 93.4%; (compound 0.316 µM) 96.6% and 98.8%; (compound 1 µM) 83.5% and 71.4%; (compound 3.16 µM) 78% and 57.2%; (compound 10 µM) 82.9% and 63.8%. Besides, the IC50 (curve of compound) is greater than 10 µM.
In the case of `CC1COCCN1c1cc(C2(S(C)(=N)=O)CC2)nc(-c2ccnc3[nH]ccc23)n1` (centres undefined) + NC1CCC(NC2CC2c2ccccc2)CC1, the concentration for half-maximal inhibition (IC50) reads like this: under setting [1], greater than 10 µM; under setting [2], greater than 10 µM; under setting [3], greater than 10 µM; under setting [4], greater than 10 µM; under setting [5], 2.25 µM. For the same compound, the viability, T/C is, setting by setting: under setting [6], 107%; under setting [7], 91.1%; under setting [8], 83.2%; under setting [9], 89.1%; (second compound 0.1 µM, first compound 3.16 µM) 63.4%; (second compound 0.1 µM, first compound 10 µM) 49.4%. In addition, the viability, T/C runs as follows: under setting [10], 105%; under setting [11], 99%; under setting [12], 86.9%; under setting [13], 83%; (second compound 0.316 µM, first compound 3.16 µM) 64.1%; (second compound 0.316 µM, first compound 10 µM) 52.9%. The viability, T/C is 88.1% under setting [14]; 93.4% under setting [15]; 100% under setting [16]; 65.3% under setting [17]; 59.8% (second compound 1 µM, first compound 3.16 µM); 60.9% (second compound 1 µM, first compound 10 µM). The viability, T/C under setting [18] was 92.6%; the viability, T/C under setting [19] was 93.2%; the viability, T/C under setting [20] was 98%; the viability, T/C under setting [21] is 78.2%; the viability, T/C (second compound 3.16 µM, first compound 3.16 µM) is 63.1%; the viability, T/C (second compound 3.16 µM, first compound 10 µM) is 49.5%. Besides, the viability, T/C reads like this: under setting [22], 87.3%; under setting [23], 88.1%; under setting [24], 71%; under setting [25], 62.1%; (second compound 10 µM, first compound 3.16 µM) 46.1%; (second compound 10 µM, first compound 10 µM) 21.3%.
On to `COc1cc(C2c3cc4c(cc3C(OC3OC5COC(C)OC5C(O)C3O)C3COC(=O)C23)OCO4)cc(OC)c1O` (centres undefined), for which the viability, T/C runs as follows: (compound 0.00949 µM) 81.8% and 78.6%; (compound 0.03 µM) 73.6% and 82.9%; (compound 0.0949 µM) 78% and 57.8%; (compound 0.3 µM) 77.3% and 50.9%; (compound 0.949 µM) 73.4% and 48.3%; (compound 3 µM) 74.7% and 34.3%. The IC50 (curve of compound) is > 3 µM and 0.359 µM.
